In PubChem BioAssay (NCI):
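GI50 is the concentration that inhibits growth by half. TGI marks complete inhibition of growth.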

Assays:
Test in all cases: NCI tumour cell line growth inhibition, 384-well format
SN12C renal = system: SN12C renal
NCI-H226 lung = system: NCI-H226 lung
HOP-92 NSCLC = system: HOP-92 NSCLC
OVCAR-5 ovarian = system: OVCAR-5 ovarian
786-0 renal = system: 786-0 renal
SF-539 CNS = system: SF-539 CNS
CAKI-1 renal = system: CAKI-1 renal
KM12 colon = system: KM12 colon
K-562 leukemia = system: K-562 leukemia
SW-620 colon = system: SW-620 colon
RPMI-8226 leukemia = system: RPMI-8226 leukemia
HT29 colon = system: HT29 colon
NCI/ADR-RES ovarian = system: NCI/ADR-RES ovarian
SR leukemia = system: SR leukemia
LOX IMVI melanoma = system: LOX IMVI melanoma
HS 578T breast = system: HS 578T breast
SNB-19 CNS = system: SNB-19 CNS
U251 glioblastoma = system: U251 glioblastoma
CCRF-CEM leukemia = system: CCRF-CEM leukemia
UO-31 renal = system: UO-31 renal
SK-MEL-28 melanoma = system: SK-MEL-28 melanoma
SNB-75 CNS = system: SNB-75 CNS
PC-3 prostate = system: PC-3 prostate
T-47D breast = system: T-47D breast
NCI-H23 lung = system: NCI-H23 lung
MALME-3M melanoma = system: MALME-3M melanoma
OVCAR-8 ovarian = system: OVCAR-8 ovarian
COLO 205 colon = system: COLO 205 colon
MDA-MB-231 breast = system: MDA-MB-231 breast
M14 melanoma = system: M14 melanoma
TK-10 renal = system: TK-10 renal
HOP-62 NSCLC = system: HOP-62 NSCLC
SK-OV-3 ovarian = system: SK-OV-3 ovarian
MDA-MB-468 breast = system: MDA-MB-468 breast
MOLT-4 leukemia = system: MOLT-4 leukemia
NCI-H522 lung = system: NCI-H522 lung
MCF7 breast = system: MCF7 breast
HCT-116 colon = system: HCT-116 colon
BT-549 breast = system: BT-549 breast
OVCAR-3 ovarian = system: OVCAR-3 ovarian
EKVX NSCLC = system: EKVX NSCLC
OVCAR-4 ovarian = system: OVCAR-4 ovarian
HL-60(TB) leukemia = system: HL-60(TB) leukemia
UACC-257 melanoma = system: UACC-257 melanoma
SK-MEL-5 melanoma = system: SK-MEL-5 melanoma
ACHN renal = system: ACHN renal
A549 NSCLC = system: A549 NSCLC
HCT-15 colon = system: HCT-15 colon
NCI-H322M lung = system: NCI-H322M lung
MDA-MB-435 melanoma = system: MDA-MB-435 melanoma
IGROV1 ovarian = system: IGROV1 ovarian
RXF 393 renal = system: RXF 393 renal
NCI-H460 NSCLC = system: NCI-H460 NSCLC
A498 renal = system: A498 renal
SF-295 CNS = system: SF-295 CNS
SF-268 CNS = system: SF-268 CNS
DU-145 prostate = system: DU-145 prostate
HCC-2998 colon = system: HCC-2998 colon

`NC(=O)c1ccc(-c2nc(-c3ccc4c(c3)OCO4)c(-c3ccccn3)[nH]2)cc1` gave a GI50 (SN12C renal) of 39.1 µM, a TGI (SN12C renal) of over 100 µM and a GI50 (NCI-H226 lung) of 17.2 µM. It also gave a TGI (NCI-H226 lung) of 32.7 µM, a GI50 (HOP-92 NSCLC) of 30.7 µM and a TGI (HOP-92 NSCLC) of 95.7 µM. It also gave a GI50 (OVCAR-5 ovarian) of 26.6 µM, a TGI (OVCAR-5 ovarian) of 81.9 µM and a GI50 ([…]-0 renal) of 28 µM. It also gave a TGI (786-0 renal) of 81.6 µM, a GI50 (SF-539 CNS) of 41.8 µM and a TGI (SF-539 CNS) of over 100 µM. It also gave a GI50 (CAKI-1 renal) of 28.4 µM, a TGI (CAKI-1 renal) of 72.9 µM and a GI50 (KM12 colon) of 27 µM. It also gave a TGI (KM12 colon) of 73.2 µM, a GI50 (K-562 leukemia) of 35.3 µM and a TGI (K-562 leukemia) of over 100 µM. The GI50 (SW-620 colon) was 60.6 µM, the TGI (SW-620 colon) was over 100 µM and the GI50 (RPMI-8226 leukemia) was 15.7 µM. It also gave a TGI (RPMI-8226 leukemia) of 30.4 µM, a GI50 (HT29 colon) of 19.9 µM and a TGI (HT29 colon) of 44.9 µM. It also gave a GI50 (NCI/ADR-RES ovarian) of 16.4 µM, a TGI (NCI/ADR-RES ovarian) of 33.3 µM and a GI50 (SR leukemia) of 17.5 µM. It also gave a TGI (SR leukemia) of 32.4 µM, a GI50 (LOX IMVI melanoma) of 14.2 µM and a TGI (LOX IMVI melanoma) of 29.4 µM. The GI50 (HS 578T breast) was 25.3 µM, the TGI (HS 578T breast) was 60.1 µM and the GI50 (SNB-19 CNS) was 40.1 µM. For the same compound, the TGI (SNB-19 CNS) was over 100 µM, the GI50 (U251 glioblastoma) was 35.2 µM and the TGI (U251 glioblastoma) was over 100 µM. It also gave a GI50 (CCRF-CEM leukemia) of 18.1 µM, a TGI (CCRF-CEM leukemia) of 38.7 µM and a GI50 (UO-31 renal) of 42.6 µM. The TGI (UO-31 renal) was over 100 µM, the GI50 (SK-MEL-28 melanoma) was 32.9 µM and the TGI (SK-MEL-28 melanoma) was 86.5 µM. For the same compound, the GI50 (SNB-75 CNS) was 42.4 µM, the TGI (SNB-75 CNS) was over 100 µM and the GI50 (PC-3 prostate) was 27.2 µM. For the same compound, the TGI (PC-3 prostate) was over 100 µM, the GI50 (T-47D breast) was 20.4 µM and the TGI (T-47D breast) was 42.4 µM. For the same compound, the GI50 (NCI-H23 lung) was 22 µM, the TGI (NCI-H23 lung) was 47.7 µM and the GI50 (MALME-3M melanoma) was 29.7 µM. It also gave a TGI (MALME-3M melanoma) of 52.4 µM, a GI50 (OVCAR-8 ovarian) of 22.6 µM and a TGI (OVCAR-8 ovarian) of 52.2 µM. The GI50 (COLO 205 colon) was 21.7 µM, the TGI (COLO 205 colon) was 39.3 µM and the GI50 (MDA-MB-231 breast) was 22.2 µM. For the same compound, the TGI (MDA-MB-231 breast) was 83 µM, the GI50 (M14 melanoma) was 24.4 µM and the TGI (M14 melanoma) was 83.2 µM. The GI50 (TK-10 renal) was 24.6 µM, the TGI (TK-10 renal) was 60.4 µM and the GI50 (HOP-62 NSCLC) was 18.5 µM. For the same compound, the TGI (HOP-62 NSCLC) was 43 µM, the GI50 (SK-OV-3 ovarian) was 24.3 µM and the TGI (SK-OV-3 ovarian) was 64.9 µM. For the same compound, the GI50 (MDA-MB-468 breast) was 17.9 µM, the TGI (MDA-MB-468 breast) was 36.9 µM and the GI50 (MOLT-4 leukemia) was 16.5 µM. It also gave a TGI (MOLT-4 leukemia) of 30.3 µM, a GI50 (NCI-H522 lung) of 24.2 µM and a TGI (NCI-H522 lung) of 46.1 µM. It also gave a GI50 (MCF7 breast) of 20.6 µM, a TGI (MCF7 breast) of 49.1 µM and a GI50 (HCT-116 colon) of 16.9 µM. It also gave a TGI (HCT-116 colon) of 32.2 µM, a GI50 (BT-549 breast) of 17.5 µM and a TGI (BT-549 breast) of 64.3 µM. It also gave a GI50 (OVCAR-3 ovarian) of 21.6 µM, a TGI (OVCAR-3 ovarian) of 47.1 µM and a GI50 (EKVX NSCLC) of 14.3 µM. The TGI (EKVX NSCLC) was 59.1 µM, the GI50 (OVCAR-4 ovarian) was 26.7 µM and the TGI (OVCAR-4 ovarian) was 71.6 µM. For the same compound, the GI50 (HL-60(TB) leukemia) was 17.8 µM, the TGI (HL-60(TB) leukemia) was 31.7 µM and the GI50 (UACC-257 melanoma) was 22.4 µM. The TGI (UACC-257 melanoma) was 43 µM, the GI50 (SK-MEL-5 melanoma) was 7.13 µM and the TGI (SK-MEL-5 melanoma) was 19.5 µM. The GI50 (ACHN renal) was 44.7 µM, the TGI (ACHN renal) was over 100 µM and the GI50 (A549 NSCLC) was 21.1 µM. It also gave a TGI (A549 NSCLC) of 57.1 µM, a GI50 (HCT-15 colon) of 18.9 µM and a TGI (HCT-15 colon) of 36 µM. It also gave a GI50 (NCI-H322M lung) of 27.9 µM, a TGI (NCI-H322M lung) of 90.6 µM and a GI50 (MDA-MB-435 melanoma) of 39.6 µM. The TGI (MDA-MB-435 melanoma) was over 100 µM, the GI50 (IGROV1 ovarian) was 19.6 µM and the TGI (IGROV1 ovarian) was 46.1 µM. It also gave a GI50 (RXF 393 renal) of 11.9 µM, a TGI (RXF 393 renal) of 26.8 µM and a GI50 (NCI-H460 NSCLC) of 14.4 µM. It also gave a TGI (NCI-H460 NSCLC) of 28.1 µM, a GI50 (A498 renal) of 23.4 µM and a TGI (A498 renal) of 56.3 µM. The GI50 (SF-295 CNS) was 20.2 µM, the TGI (SF-295 CNS) was 43.3 µM and the GI50 (SF-268 CNS) was 38 µM. For the same compound, the TGI (SF-268 CNS) was over 100 µM, the GI50 (DU-145 prostate) was 23.7 µM and the TGI (DU-145 prostate) was 52.1 µM. It also gave a GI50 (HCC-2998 colon) of 16.7 µM and a TGI (HCC-2998 colon) of 36.3 µM.
